Key:
Type in all cases: physicochemical
[1] = Solubility of lemuteporfin in various solvents (HPLC analysis)
From the text: The solubility of lemuteporfin in various solvent compositions is shown in the last column of Table 2. All values were obtained analytically by HPLC analysis.
Solubility results for lemuteporfin indicated maximum solubility in solvent-based formulations containing primarily benzyl alcohol. […] The addition of other solvents reduced solubility by approximately the amount of the new solvent introduced. Diethylene glycol monoethyl ether (DGME) is about 20% as efficient at dissolving lemuteporfin as benzyl alcohol.

[2] = Solubility of lemuteporfin in the LTS formulation (stirred, sampled, filtered)
Description: LTS was prepared by adding lemuteporfin to the other components in Table 4 (already pre-mixed) at room temperature. The solution was stirred and samples were removed at various time points, and filtered to determine the amount of undissolved lemuteporfin. The amount of lemuteporfin that dissolved was approximately 0.048%.
Studies were conducted to determine the effect of certain of the LTS excipients on the solubility of lemuteporfin.

[3] = Stability of supersaturated/reconstituted lemuteporfin solutions up to 4 hours (filtered, HPLC); conditions: up to 4 hours post-reconstitution
Description: Samples of the compositions are taken at various time points after combining the photosensitizing component and the excipient component. Half of the samples are filtered to remove any precipitates, for example through a 0.22 μm filter. The filtered solutions are analyzed, for example, using HPLC, for the content or concentration of photosensitizer. If the solution is stable, and no photosensitizer has precipitated out, then the concentration of photosensitizer in the filtered solution should be roughly the same as the concentration of photosensitizer in the unfiltered solution, within experimental error.
Three formulations (Batches C (Table 8), D (Table 9) and H (Table 10)) in which the Vial 1 photosensitizer component consisted of benzyl alcohol and lemuteporfin at three lemuteporfin concentrations, 0.1, 0.075 and 0.05% w/w in the final combined LTS solution were examined for stability after reconstitution with the remaining excipients in Vial 2.
Vial 2 contents were added to vial 1 for each formulation, mixed and sampled at time 0 and 4 hours after reconstitution. The samples were filtered through a 0.22 μm filter before analysis by HPLC. This analysis was performed to ensure that the combined product had adequate stability and would not precipitate before administration to a subject. […]

Efficiency of DGME at dissolving lemuteporfin relative to benzyl alcohol ([1]; DGME versus benzyl alcohol): about 20%
Solubility, % w/w Lemuteporfin ([1]; solvent % w/w: DGME 45, benzyl alcohol 45, oleyl alcohol 5, oleic acid 5): 1.373 % w/w
Solubility, % w/w Lemuteporfin ([1]; solvent % w/w: DGME 50, benzyl alcohol 15, oleic acid 35): 0.230 % w/w
Solubility, % w/w Lemuteporfin ([1]; solvent % w/w: DGME 50, benzyl alcohol 15, oleyl alcohol 35): 0.200 % w/w
Solubility, % w/w Lemuteporfin ([1]; solvent % w/w: DGME 50, benzyl alcohol 50): 1.57 % w/w
Solubility, % w/w Lemuteporfin ([1]; solvent % w/w: DGME 52, benzyl alcohol 16, oleyl alcohol 16, oleic acid 16): 0.210 % w/w
Solubility, % w/w Lemuteporfin ([1]; solvent % w/w: DGME 65, oleyl alcohol 17.5, oleic acid 17.5): 0.271 % w/w
Solubility, % w/w Lemuteporfin ([1]; solvent % w/w: DGME 65, oleyl alcohol 35): 0.430 % w/w
Solubility, % w/w Lemuteporfin ([1]; solvent % w/w: DGME 90, isopropyl myristate 10): 0.430 % w/w
Solubility, % w/w Lemuteporfin ([1]; solvent % w/w: DGME 90, oleyl alcohol 5, oleic acid 5): 0.420 % w/w
Solubility, % w/w Lemuteporfin ([1]; solvent % w/w: DGME 90, oleyl alcohol 10): 0.420 % w/w
Solubility, % w/w Lemuteporfin ([1]; solvent % w/w: benzyl alcohol 30, ethanol (190) 70): 0.455 % w/w
Solubility, % w/w Lemuteporfin ([1]; solvent % w/w: benzyl alcohol 30, oleyl alcohol 70): 0.166 % w/w
Solubility, % w/w Lemuteporfin ([1]; solvent % w/w: benzyl alcohol 40, isopropyl myristate 60): 0.090 % w/w
Solubility, % w/w Lemuteporfin ([1]; solvent % w/w: benzyl alcohol 50, ethanol (190) 50): 0.453 % w/w
Solubility, % w/w Lemuteporfin ([1]; solvent % w/w: benzyl alcohol 50, oleic acid 50): 0.409 % w/w
Solubility, % w/w Lemuteporfin ([1]; solvent % w/w: benzyl alcohol 50, oleyl alcohol 50): 0.228 % w/w
Solubility, % w/w Lemuteporfin ([1]; solvent % w/w: benzyl alcohol 50, propylene glycol 50): 0.494 % w/w
Solubility, % w/w Lemuteporfin ([1]; solvent % w/w: benzyl alcohol 90, isopropyl myristate 10): 2.30 % w/w
Solubility, % w/w Lemuteporfin ([1]; solvent % w/w: benzyl alcohol 90, oleic acid 10): 2.33 % w/w
Solubility, % w/w Lemuteporfin ([1]; solvent % w/w: benzyl alcohol 90, oleyl alcohol 5, oleic acid 5): 2.22 % w/w
Solubility, % w/w Lemuteporfin ([1]; solvent % w/w: benzyl alcohol 90, oleyl alcohol 10): 2.24 % w/w
Solubility, % w/w Lemuteporfin ([1]; solvent: benzyl alcohol 100 % w/w): 2.55 % w/w
Solubility of lemuteporfin in the LTS solution system ([2]; isopropyl alcohol removed (data not shown)): ~0.07 % w/w
Amount of lemuteporfin that dissolved in the Table 4 components ([2]; room temperature): approximately 0.048%
Lemuteporfin content (% w/w), dissolved in formulation of Table 4 ([2]; room temperature, time point 0.17 hours): 0.0241 % w/w
Lemuteporfin content (% w/w), dissolved in formulation of Table 4 ([2]; room temperature, time point 2.47 hours): 0.0482 % w/w
Lemuteporfin content (% w/w), dissolved in formulation of Table 4 ([2]; room temperature, time point 4.37 hours): 0.0453 % w/w
Lemuteporfin content (% w/w), dissolved in formulation of Table 4 ([2]; room temperature, time point 6.37 hours): 0.0463 % w/w
Lemuteporfin content (% w/w), dissolved in formulation of Table 4 ([2]; room temperature, time point 23.5 hours): 0.0370 % w/w
Solubility of lemuteporfin in the LTS solution system ([2]; with isopropyl alcohol (data not shown)): approximately 0.03 % w/w
Solubility of lemuteporfin in the LTS solution system ([2]; with polysorbate 80 (data not shown)): 0.037 % w/w
Solubility of lemuteporfin in the LTS solution system ([2]; without polysorbate 80 (data not shown)): 0.027 % w/w
Precipitation after reconstitution [3]: has not precipitated out of solution
Substance: lemuteporfin

— patent publication US20130289089A1, “Pharmaceutical Compositions for Topical Delivery of Photosensitizers and Uses Thereof” (priority 2011, published 2013)
